# How the values were obtained:
# [1] = target: T1, Muscarinic acetylcholine receptor M3 (Homo sapiens, UniProt P20309); experiment: Displacement of [3H]NMS from human muscarinic M3 receptor expressed in CHO-K1 cells after 16 hrs by scintillation proximity assay; assay type: cell-based
# Target sequence in this assay (P20309 whole entry): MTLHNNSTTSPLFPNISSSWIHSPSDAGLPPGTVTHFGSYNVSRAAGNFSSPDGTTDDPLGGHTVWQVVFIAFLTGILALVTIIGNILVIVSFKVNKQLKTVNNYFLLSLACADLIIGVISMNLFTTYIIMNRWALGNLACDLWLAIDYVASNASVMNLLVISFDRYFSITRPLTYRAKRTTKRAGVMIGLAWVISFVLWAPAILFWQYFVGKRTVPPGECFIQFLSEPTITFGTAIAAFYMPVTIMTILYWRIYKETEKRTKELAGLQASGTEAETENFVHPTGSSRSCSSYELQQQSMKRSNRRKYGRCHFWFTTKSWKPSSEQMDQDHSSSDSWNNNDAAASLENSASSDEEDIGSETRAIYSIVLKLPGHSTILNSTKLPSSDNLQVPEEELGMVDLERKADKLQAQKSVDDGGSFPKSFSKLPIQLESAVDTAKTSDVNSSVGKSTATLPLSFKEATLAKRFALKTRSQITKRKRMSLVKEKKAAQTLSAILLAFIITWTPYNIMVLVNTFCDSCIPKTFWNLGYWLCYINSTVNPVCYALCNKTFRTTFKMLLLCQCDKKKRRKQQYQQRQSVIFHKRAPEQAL
# [2] = target: T2, Muscarinic acetylcholine receptor M2 (Homo sapiens, UniProt P08172); experiment: Displacement of [3H]NMS from human muscarinic M2 receptor expressed in CHO-K1 cells after 16 hrs by scintillation proximity assay; assay type: cell-based
# T2 sequence (P08172 whole entry): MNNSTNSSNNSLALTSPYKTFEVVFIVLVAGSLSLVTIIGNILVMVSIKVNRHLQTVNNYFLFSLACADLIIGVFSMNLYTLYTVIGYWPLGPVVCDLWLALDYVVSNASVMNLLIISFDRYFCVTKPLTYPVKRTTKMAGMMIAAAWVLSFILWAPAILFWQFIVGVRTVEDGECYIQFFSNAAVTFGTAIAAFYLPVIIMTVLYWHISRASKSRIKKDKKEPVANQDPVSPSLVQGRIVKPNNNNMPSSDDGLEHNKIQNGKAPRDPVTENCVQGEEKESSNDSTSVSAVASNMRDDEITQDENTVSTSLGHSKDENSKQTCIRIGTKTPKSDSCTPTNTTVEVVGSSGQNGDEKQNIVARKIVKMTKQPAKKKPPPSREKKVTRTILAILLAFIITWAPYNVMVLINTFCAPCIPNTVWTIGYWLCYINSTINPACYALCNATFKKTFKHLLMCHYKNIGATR
# [3] = target: T3, Muscarinic acetylcholine receptor M4 (Homo sapiens, UniProt P08173); experiment: Displacement of [3H]NMS from human muscarinic M4 receptor expressed in CHO-K1 cells after 16 hrs by scintillation proximity assay; assay type: cell-based
# T3 sequence (P08173 whole entry): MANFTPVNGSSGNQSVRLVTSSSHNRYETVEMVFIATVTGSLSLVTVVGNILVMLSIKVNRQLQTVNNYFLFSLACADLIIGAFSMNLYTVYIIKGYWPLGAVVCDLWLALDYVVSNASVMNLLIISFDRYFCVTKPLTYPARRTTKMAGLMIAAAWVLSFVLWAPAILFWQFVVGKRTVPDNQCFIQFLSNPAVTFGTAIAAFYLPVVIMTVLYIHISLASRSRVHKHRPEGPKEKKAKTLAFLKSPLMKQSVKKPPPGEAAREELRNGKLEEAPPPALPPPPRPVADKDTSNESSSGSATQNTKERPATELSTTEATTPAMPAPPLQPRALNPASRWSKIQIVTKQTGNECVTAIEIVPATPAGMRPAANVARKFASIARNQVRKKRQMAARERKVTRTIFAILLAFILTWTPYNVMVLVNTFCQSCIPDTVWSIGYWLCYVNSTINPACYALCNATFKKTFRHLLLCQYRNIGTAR
# [4] = target: T4, Muscarinic acetylcholine receptor M1 (Homo sapiens, UniProt P11229); experiment: Displacement of [3H]NMS from human muscarinic M1 receptor expressed in CHO-K1 cells after 16 hrs by scintillation proximity assay; assay type: cell-based
# T4 sequence (P11229 whole entry): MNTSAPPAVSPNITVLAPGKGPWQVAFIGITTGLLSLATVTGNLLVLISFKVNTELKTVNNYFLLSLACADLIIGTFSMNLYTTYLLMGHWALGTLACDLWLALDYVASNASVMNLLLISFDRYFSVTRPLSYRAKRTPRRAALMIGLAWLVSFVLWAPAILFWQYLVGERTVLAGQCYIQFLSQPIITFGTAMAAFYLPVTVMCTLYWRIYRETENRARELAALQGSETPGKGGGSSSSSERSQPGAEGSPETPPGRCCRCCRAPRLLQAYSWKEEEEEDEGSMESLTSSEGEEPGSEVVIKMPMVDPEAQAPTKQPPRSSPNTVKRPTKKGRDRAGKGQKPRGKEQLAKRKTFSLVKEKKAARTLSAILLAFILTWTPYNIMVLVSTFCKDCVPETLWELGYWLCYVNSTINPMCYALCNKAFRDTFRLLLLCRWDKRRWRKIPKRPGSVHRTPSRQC
# [5] = target: T5, Muscarinic acetylcholine receptor M5 (Homo sapiens, UniProt P08912); experiment: Displacement of [3H]NMS from human muscarinic M5 receptor expressed in CHO-K1 cells after 16 hrs by scintillation proximity assay; assay type: cell-based
# T5 sequence (P08912 whole entry): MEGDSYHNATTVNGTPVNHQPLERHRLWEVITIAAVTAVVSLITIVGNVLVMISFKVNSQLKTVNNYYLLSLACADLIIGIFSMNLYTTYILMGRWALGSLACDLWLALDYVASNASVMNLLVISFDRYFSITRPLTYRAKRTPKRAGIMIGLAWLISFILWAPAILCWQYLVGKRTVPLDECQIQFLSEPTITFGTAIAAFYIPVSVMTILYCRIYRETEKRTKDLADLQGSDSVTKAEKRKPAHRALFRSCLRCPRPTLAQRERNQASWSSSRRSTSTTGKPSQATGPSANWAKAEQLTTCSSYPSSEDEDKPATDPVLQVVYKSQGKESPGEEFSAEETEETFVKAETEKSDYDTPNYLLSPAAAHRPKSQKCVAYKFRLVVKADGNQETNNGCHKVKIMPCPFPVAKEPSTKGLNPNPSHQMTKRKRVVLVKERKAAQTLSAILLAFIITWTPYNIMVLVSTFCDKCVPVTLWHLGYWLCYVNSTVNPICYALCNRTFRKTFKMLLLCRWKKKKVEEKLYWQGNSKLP
# [6] = Clearance in human microsomes; assay type: ADME, Microsome
# Hepatocyte = experiment: Clearance in rat hepatocytes; assay type: ADME, cell-based, Liver
# [7] = Lipophilicity, log D of the compound; assay type: physicochemical; conditions: octanol/water
# [8] = target: T1, Muscarinic acetylcholine receptor M3; experiment: Displacement of [3H]NMS from human muscarinic M3 receptor expressed in CHO-K1 cells at 1 uM after 16 hrs by scintillation proximity assay; assay type: cell-based
# Target sequence in this assay (P20309 whole entry, looked up): as the sequence (P20309 whole entry) above
Structure (SMILES),IC50 [1],IC50 [2],also measured
CC(C)c1nc(C(=O)N2CCOC3(CCN(Cc4ccccc4Cl)CC3)C2)cs1,20 nM,25.1 nM,–
O=C(c1cccnc1)N1CCC2(CCN(Cc3ccccc3)CC2)CC1,> 1000 nM,79.4 nM,–
O=C(c1ccccc1)N1CCC2(CCN(Cc3ccccc3)CC2)CC1,126 nM,6.31 nM,–
O=C(O[C@H]1C[N+]2(CCCOc3ccccc3)CCC1CC2)C(O)(c1cccs1)c1cccs1 [ACLIDINIUM BROMIDE],–,–,IC50 [3]: 0.2 nM; IC50 [4]: 0.1 nM; IC50 [5]: 0.158 nM
O=C(c1ccsc1)N1CCC2(CCN(Cc3ccccc3)CC2)CC1,316 nM,15.8 nM,–
O=C(c1ccccc1)N1CCC2(CCN(Cc3cccc(Cl)c3)CC2)CC1,100 nM,3.98 nM,–
C[N+]1(C)[C@@H]2C[C@@H](OC(=O)C(O)(c3cccs3)c3cccs3)C[C@H]1[C@@H]1O[C@@H]12 [TIOTROPIUM BROMIDE],–,–,IC50 [3]: 0.0398 nM; IC50 [5]: 0.1 nM
CC(C)c1nc(C(=O)N2CCOC3(CCN(Cc4ccccc4)CC3)C2)cs1,3.98 nM,15.8 nM,–
O=C(c1ccccc1)N1CCOC2(CCN(Cc3ccc(Cl)cc3)CC2)C1,251 nM,126 nM,–
CCOc1ccccc1C(=O)N1CCC2(CCN(Cc3ccccc3)CC2)CC1,794 nM,79.4 nM,–
Cc1nc(C(=O)N2CCCC3(CCN(Cc4ccccc4)CC3)C2)cs1,> 1000 nM,> 1000 nM,–
O=C(c1ccco1)N1CCC2(CCN(Cc3ccccc3)CC2)CC1,> 1000 nM,79.4 nM,–
Cc1nc(C(=O)N2CCOC3(CCN(Cc4ccccc4Cl)CC3)C2)cs1,7.94 nM,3.16 nM,–
Cc1nc(C(=O)N2CCCC3(CCN(Cc4ccc(Cl)cc4)CC3)C2)cs1,> 1000 nM,> 1000 nM,–
Cc1ccccc1CN1CCC2(CC1)CN(C(=O)c1csc(C(C)C)n1)CCO2,398 nM,794 nM,–
O=C(c1ncccn1)N1CCOC2(CCN(Cc3ccc(Cl)cc3)CC2)C1,398 nM,126 nM,–
O=C(c1ncccn1)N1CCC2(CCN(Cc3ccccc3)CC2)CC1,–,251 nM,inhibition [8]: < 50%
Cc1cccc(CN2CCC3(CC2)CCN(C(=O)c2ccccc2)CC3)c1,100 nM,2.51 nM,–
O=C(c1ccc2occc2c1)N1CCOC2(CCN(Cc3ccc(Cl)cc3)CC2)C1,31.6 nM,31.6 nM,–

# The next lines start with results.
IC50 [1],IC50 [2],Structure (SMILES),also measured
50.1 nM,50.1 nM,Cc1ccc(C(=O)N2CCOC3(CCN(Cc4ccc(Cl)cc4)CC3)C2)o1,–
398 nM,79.4 nM,O=C(c1ccon1)N1CCOC2(CCN(Cc3ccc(Cl)cc3)CC2)C1,–
126 nM,63.1 nM,O=C(c1ccoc1)N1CCOC2(CCN(Cc3ccc(Cl)cc3)CC2)C1,–
158 nM,50.1 nM,O=C(c1cscn1)N1CCOC2(CCN(Cc3ccc(Cl)cc3)CC2)C1,–
15.8 nM,31.6 nM,CC(C)c1nc(C(=O)N2CCOC3(CCN(Cc4ccc(Cl)cc4)CC3)C2)cs1,–
5.01 nM,10 nM,CC(C)c1nc(C(=O)N2CCOC3(CCN(Cc4cccc(Cl)c4)CC3)C2)cs1,–
15.8 nM,12.6 nM,CCc1nc(C(=O)N2CCOC3(CCN(Cc4ccc(Cl)cc4)CC3)C2)cs1,–
200 nM,39.8 nM,O=C(c1cnsn1)N1CCOC2(CCN(Cc3ccc(Cl)cc3)CC2)C1,–
10 nM,3.16 nM,Cc1nc(C(=O)N2CCOC3(CCN(Cc4ccc(Cl)cc4)CC3)C2)cs1,microsomal CLint [6]: 11 µL/min/mg; CL (Hepatocyte): 47 µL/min/mg; logD [7]: 2.2
1.26 nM,1.26 nM,Cc1nc(C(=O)N2CCOC3(CCN(Cc4cccc(Cl)c4)CC3)C2)cs1,–
63.1 nM,25.1 nM,O=C(c1ccco1)N1CCOC2(CCN(Cc3ccc(Cl)cc3)CC2)C1,–
> 1000 nM,> 1000 nM,CC(C)(C)c1nc(C(=O)N2CCOC3(CCN(Cc4ccc(Cl)cc4)CC3)C2)cs1,–
100 nM,126 nM,O=C(c1ccc(CO)o1)N1CCOC2(CCN(Cc3ccc(Cl)cc3)CC2)C1,–
> 1000 nM,–,O=C(c1cccnc1)N1CCOC2(CCN(Cc3ccc(Cl)cc3)CC2)C1,–
63.1 nM,20 nM,O=C(c1cccs1)N1CCOC2(CCN(Cc3ccc(Cl)cc3)CC2)C1,–
